Results as given in the METLIN SMRT retention time set (Domingo-Almenara et al. 2019).

experiment: gradient 5% acetonitrile 3 min, to 50% in 2 min, to 85% in 15 min, held 3 min, 100 µL/min; conditions: column: Zorbax Extend-C18 2.1 x 50 mm; eluents: water / acetonitrile, 0.1% formic acid
Outline: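 The system's dead and dwell volumes were 40 μL and 900 μL, with a Zorbax Extend-C18 column (2.1 × 50 mm, 1.8 μm) run at 100 μL/min in water and acetonitrile containing 0.1% formic acid each. Pure standards were analyzed in mixtures of ~100 molecules by HPLC–quadrupole time-of-flight mass spectrometry in positive and negative ionization mode. Retention time was assigned from computationally picked, manually inspected adduct peaks.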

| Structure (SMILES) | RP-LC retention time [s] |
| --- | --- |
| Cc1nnsc1C(=O)Nc1ccc2c(c1)OCC(C)(C)C(=O)N2C | 605 |
| CCOCCCNC(=O)NC1CCN(c2nc3ccccc3n(C)c2=O)CC1 | 690 |
| CCCN1C(=O)c2c(C(=O)NCc3ccc(F)cc3)ncn2CC1(C)C(=O)NCCC(C)C (configuration not stated) | 824 |
| COc1cc(OC)cc(-c2nc(C3CC(=O)N(c4ccc(F)cc4)C3)no2)c1 (configuration not stated) | 977 |
| CCCN1C(=O)COc2ccc(-c3noc(CNC(=O)Cc4ccc(Cl)cc4)n3)cc21 | 1050 |
| CN(C)c1ccc(CCCNC(=O)C2CC2)cc1 | 525 |
| CCS(=O)(=O)N1C[C@@H](COC)[C@H](c2ccncc2)C1 | 544 |
| O=C(CN1C(=O)C(C(=O)N2CCCCC2)Sc2ccccc21)N1CCN(c2ccccn2)CC1 (configuration not stated) | 634 |
| O=C(NCc1cccc(Oc2ccc(F)cc2)c1)c1cccnc1 | 588 |
| Cc1c(CNCCCN2CCCC2=O)c(C(=O)O)c(C)n1Cc1cccc(Cl)c1 | 665 |
| Cc1ccc(NC(=O)Cn2cnc3c(sc4nc(-c5ccccc5)ccc43)c2=O)cc1 | 859 |
| Cc1cccc(-c2noc(Cn3ncn4nc(-c5ccc(F)cc5)cc4c3=O)n2)c1 | 1150 |
| CC(C)c1noc(-c2cc(=O)n(CC(=O)Nc3ccc(F)c(Cl)c3)c3ccccc23)n1 | 1100 |
| COc1ccc2c(CCNC(=O)Nc3ccccc3)c[nH]c2c1 | 791 |
| CC1CCCN(c2ccn3c(=O)n(CC(=O)NCc4ccc(Cl)cc4)nc3n2)C1 (configuration not stated) | 821 |
| O=C(c1cccnc1)N1CCCC(c2n[nH]c(C3CC3)n2)C1 (configuration not stated) | 486 |
| COc1ccc(OCc2nc(-c3ccc4ncn(C(C)C)c4c3)no2)cc1 | 727 |
| COc1ccccc1CNC(=O)c1nc(N2CCOCC2)c2c(C)cc(C)nc2n1 | 643 |
| COc1ccc(N/C=C2\C(=O)CCc3c2oc2cc(Cl)c(O)c(Cl)c32)cc1 | 1170 |

| Structure (SMILES) | RP-LC retention time [s] |
| --- | --- |
| CCN1C(=O)COc2ccc(-c3noc(C4(c5ccccc5)CC4)n3)cc21 | 991 |
| COc1ncc(C(=O)N2CCN(c3ccccc3F)CC2)cn1 | 770 |
| O=C(Nc1ccccc1F)C1CCN(c2cc(N3CCCCC3)ncn2)CC1 | 689 |
| CCOC(=O)c1c(C)c(CCC(=O)N2CCCCCC2)n(C)c1C | 897 |
| CCCNC(=O)CCc1nc2ccccc2n(CC(=O)Nc2ccc(OCC)cc2)c1=O | 788 |
| O=c1n(Cc2ccc3c(c2)OCO3)nc2c(S(=O)(=O)N3CCc4ccccc4C3)cccn12 | 922 |
| CCc1nnc(NC(=O)CSc2nccn2-c2ccc(F)cc2)s1 | 653 |
| O=C1c2ccccc2C(=O)c2sc(Nc3ccc(Cl)c(Cl)c3)nc21 | 1140 |
| CC(Oc1ccc(=O)n(-c2ccc(F)cc2)n1)C(=O)Nc1ccc(F)c(F)c1 (configuration not stated) | 816 |
| COc1ccc(OC)c(CNC(=O)COc2ccc(NC(=O)C3CC3)cn2)c1 | 712 |
| COCCNC(=O)C1COc2ccc(NC(=O)c3ccc(Br)cc3)cc2C1 (configuration not stated) | 774 |
| CCCCOc1ccc(C(=O)N2CCCC2c2nc(-c3ccc(OC)c(OC)c3)no2)cc1 (configuration not stated) | 1110 |
| Cc1ccc(C(=O)N2CCCn3nc(-c4ccc(Cl)cc4)cc3C2)s1 | 931 |
| CC(=O)NCCc1csc(C2CCN(C(=O)C3(c4ccccc4)CC3)CC2)n1 | 651 |
| CCOc1ccc(-c2nc3ncccn3c2NCc2ccc(F)cc2)cc1 | 759 |
| CCN1C(=O)c2cccnc2Sc2cc(C(=O)NC3CCCCC3)ccc21 | 826 |
| COc1ccc(CNC(=O)c2ccc3c(c2)NC(=O)C2CCCCN32)cc1OC (configuration not stated) | 719 |
| Cc1cccc(-c2noc(-c3ccc(=O)n(Cc4cccnc4)c3)n2)c1 | 747 |
